Structures can show the parent of a compound that is named as a salt. Bounds are passed on as bounds.

T1 sequence (Q9Y5N1 whole entry): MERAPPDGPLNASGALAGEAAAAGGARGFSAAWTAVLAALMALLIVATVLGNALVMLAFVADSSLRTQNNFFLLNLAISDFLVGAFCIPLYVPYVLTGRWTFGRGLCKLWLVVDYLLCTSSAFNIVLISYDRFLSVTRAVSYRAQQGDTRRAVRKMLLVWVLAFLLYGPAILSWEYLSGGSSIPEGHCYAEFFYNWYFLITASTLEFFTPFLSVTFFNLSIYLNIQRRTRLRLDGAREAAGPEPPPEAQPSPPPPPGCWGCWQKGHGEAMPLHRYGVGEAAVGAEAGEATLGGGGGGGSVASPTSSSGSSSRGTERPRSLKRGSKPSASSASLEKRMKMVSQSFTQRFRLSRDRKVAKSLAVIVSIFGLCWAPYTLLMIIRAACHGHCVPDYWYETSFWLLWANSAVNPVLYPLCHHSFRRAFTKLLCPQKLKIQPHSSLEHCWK

The experiment concerns the target T1, histamine H3 receptor (Homo sapiens, UniProt Q9Y5N1).
T1 construct: expressed in transfected cells; host or cells: CHO K1 cells carrying pSwitch, transfected with pGeneH3 and induced with mifepristone; clone 3H3; membranes
The experiment can be described thus: Histamine H3 functional antagonist assay ([35S]GTPγS, SPA, membranes of CHO K1 cells expressing the receptor). It counts as biochemical. Conditions: histamine-stimulated GTPγS binding, membranes with human H3. The text has this:
A membrane preparation containing histamine H3 receptors may be prepared in accordance with the following procedures:
(i) Generation of Histamine H3 Cell Line
DNA encoding the human histamine H3 gene (Huvar, A. et al. (1999) Mol. Pharmacol. 55(6), 1101-1107) was cloned into a holding vector, pCDNA3.1 TOPO (InVitrogen) and its cDNA was isolated from this vector by restriction digestion of plasmid DNA with the enzymes BamH1 and Not-1 and ligated into the inducible expression vector pGene (InVitrogen) digested with the same enzymes. The GeneSwitch™ system (a system where in transgene expression is switched off in the absence of an inducer and switched on in the presence of an inducer) was performed as described in U.S. Pat. Nos. 5,364,791; 5,874,534; and 5,935,934. Ligated DNA was transformed into competent DH5α E. coli host bacterial cells and plated onto Luria Broth (LB) agar containing Zeocin™ (an antibiotic which allows the selection of cells expressing the sh ble gene which is present on pGene and pSwitch) at 50 μg ml^−1. Colonies containing the re-ligated plasmid were identified by restriction analysis. DNA for transfection into mammalian cells was prepared from 250 ml cultures of the host bacterium containing the pGeneH3 plasmid and isolated using a DNA preparation kit (Qiagen Midi-Prep) as per manufacturers guidelines (Qiagen).
CHO K1 cells previously transfected with the pSwitch regulatory plasmid (InVitrogen) were seeded at 2×10e6cells per T75 flask in Complete Medium, containing Hams F12 (GIBCOBRL, Life Technologies) medium supplemented with 10% v/v dialysed foetal bovine serum, L-glutamine, and hygromycin ([…]), 24 hours prior to use. Plasmid DNA was transfected into the cells using Lipofectamine plus according to the manufacturers guidelines (InVitrogen). 48 hours post transfection cells were placed into complete medium supplemented with […] Zeocin™.
10-14 days post selection 10 nM Mifepristone (InVitrogen), was added to the culture medium to induce the expression of the receptor. 18 hours post induction cells were detached from the flask using ethylenediamine tetra-acetic acid (EDTA; 1:5000; InVitrogen), following several washes with phosphate buffered saline pH 7.4and resuspended in Sorting Medium containing Minimum Essential Medium (MEM), without phenol red, and supplemented with Earles salts and 3% Foetal Clone II (Hyclone). Approximately 1×10e7 cells were examined for receptor expression by staining with a rabbit polyclonal antibody, 4a, raised against the N-terminal domain of the histamine H3 receptor, incubated on ice for 60 minutes, followed by two washes in sorting medium. Receptor bound antibody was detected by incubation of the cells for 60 minutes on ice with a goat anti rabbit antibody, conjugated with Alexa 488 fluorescence marker (Molecular Probes). Following two further washes with Sorting Medium, cells were filtered through a 50 μm Filcon™ (BD Biosciences) and then analysed on a FACS Vantage SE Flow Cytometer fitted with an Automatic Cell Deposition Unit. Control cells were non-induced cells treated in a similar manner. Positively stained cells were sorted as single cells into 96-well plates, containing Complete Medium containing 500 μg ml^−1 Zeocin™ and allowed to expand before reanalysis for receptor expression via antibody and ligand binding studies. One clone, 3H3, was selected for membrane preparation.
(ii) Membrane Preparation from Cultured Cells
All steps of the protocol are carried out at 4° C. and with pre-cooled reagents. The cell pellet is resuspended in 10 volumes of buffer A2 containing 50 mM N-2-hydroxyethylpiperazine-N′-2-ethanesulfonic acid (HEPES) (pH 7.40) supplemented with […] leupeptin (acetyl-leucyl-leucyl-arginal; Sigma L2884), 25 μg/ml bacitracin (Sigma B0125), 1 mM ethylenediamine tetra-acetic acid (EDTA), 1 mM phenylmethylsulfonyl fluoride (PMSF) and 2×10e-6M pepstain A (Sigma). […]
(Binding of GTPγS marks nucleotide exchange on a G protein.)
Turning to `CC(C)N1CCC(OC2CCN(c3ccc(C#N)cn3)CC2)CC1` [Example E1, 6-(4-([1-(1-Methylethyl)-4-piperidinyl]oxy}-1-piperidinyl)-3-pyridinecarbonitrile hydrochloride], the Ki (as a rule, the dissociation constant of the complex between target and ligand, obtained from inhibition or displacement) was below 10 nM.

In turn, `N#Cc1ccc(N2CCC(OC3CCN(C4CCC4)CC3)CC2)nc1` [Example E2, 6-{4-[(1-Cyclobutyl-4-piperidinyl)oxy]-1-piperidinyl}-3-pyridinecarbonitrile hydrochloride] had a Ki of at most 1 nM.

The compound `N#Cc1ccc(N2CCC(OC3CCN(C4CCC4)CC3)CC2)cc1` [Example E3, 4-{4-[(1-Cyclobutyl-4-piperidinyl)oxy]-1-piperidinyl}benzonitrile hydrochloride] showed a Ki of at most 1 nM.

In the case of `CC(C)N1CCC(OC2CCN(c3ccc(C#N)cc3)CC2)CC1` [Example E4, 4-(4-{[1-(1-Methylethyl)-4-piperidinyl]oxy}-1-piperidinyl)benzonitrile hydrochloride], the Ki was at most 1 nM.

For `O=C(c1ccc(N2CCC(OC3CCN(C4CCC4)CC3)CC2)cc1)N1CCOCC1` [Example E5, 4-[(4-{4-[(1-Cyclobutyl-4-piperidinyl)oxy]-1-piperidinyl}phenyl)carbonyl]morpholine hydrochloride], the Ki was at most 1 nM.

In turn, `CNC(=O)c1ccc(N2CCC(OC3CCN(C4CCC4)CC3)CC2)cc1` [Example E6, 4-[4-[(1-Cyclobutyl-4-piperidinyl)oxy]-1-piperidinyl)-N-methylbenzamide hydrochloride] gave a Ki of at most 1 nM.

As for `CC(C)N1CCC(OC2CCN(c3ccc(C(=O)N4CCOCC4)cc3)CC2)CC1` [Example E7], the Ki was at most 1 nM.

On to `CC(C)N1CCC(OC2CCN(c3ccc(C(=O)N4CCCCC4)cc3)CC2)CC1` [Example E8], for which the Ki is at most 1 nM.

As for `CC(C)N1CCC(OC2CCN(c3ccc(C(=O)N4CCCC4)cc3)CC2)CC1` [Example E10], the Ki is at most 1 nM.

Turning to `O=C(c1ccc(N2CCC(OC3CCN(C4CCC4)CC3)CC2)cc1)N1CCCC1` [Example E11], the Ki is at most 1 nM.

In turn, `CC(C)N1CCC(OC2CCN(c3ccc(C(=O)N(C)C)cc3)CC2)CC1` [Example E12] gave a Ki of at most 1 nM.

As to `CN(C)C(=O)c1ccc(N2CCC(OC3CCN(C4CCC4)CC3)CC2)cc1` [Example E13], the Ki is at most 1 nM.

Compound `CNC(=O)c1ccc(N2CCC(OC3CCN(C(C)C)CC3)CC2)cc1` [Example E14] showed a Ki below 10 nM.

Consider `O=C(NCCCCl)c1ccc(N2CCC(OC3CCN(C4CCC4)CC3)CC2)cc1` [Example E15, N-(3-Chloropropyl)-4-{4-[(1-cyclobutyl-4-piperidinyl)oxy]-1-piperidinyl}benzamide hydrochloride], for which the Ki was at most 1 nM.

In turn, `Cc1nc(-c2ccc(N3CCC(OC4CCN(C5CCC5)CC4)CC3)cc2)co1` [Example E16, 1-Cyclobutyl-4-({1-[4-(2-methyl-1,3-oxazol-4-yl)phenyl]-4-piperidinyl}oxy)piperidine hydrochloride] gave a Ki of at most 1 nM.

Compound `Cc1noc(-c2ccc(N3CCC(OC4CCN(C(C)C)CC4)CC3)cc2)n1` [Example E17, 1-(1-Methylethyl)-4-({1-[4-(3-methyl-1,2,4-oxadiazol-5-yl)phenyl]-4-piperidinyl}oxy)piperidine hydrochloride] showed a Ki below 0.316 nM.

Consider `Cc1nc(-c2ccc(N3CCC(OC4CCN(C(C)C)CC4)CC3)cc2)co1` [Example E18], for which the Ki was below 10 nM.

For `CC(C)N1CCC(OC2CCN(c3ccc(-c4ncco4)cc3)CC2)CC1` [Example E19], the Ki is below 10 nM.

`Cc1ncc(-c2ccc(N3CCC(OC4CCN(C(C)C)CC4)CC3)cc2)o1` [Example E20] gave a Ki below 10 nM.

The compound `c1coc(-c2ccc(N3CCC(OC4CCN(C5CCC5)CC4)CC3)cc2)n1` [Example E21] had a Ki of at most 1 nM.

The compound `Cc1ncc(-c2ccc(N3CCC(OC4CCN(C5CCC5)CC4)CC3)cc2)o1` [Example E22] showed a Ki of at most 1 nM.

The compound `Cc1cc(-c2ccc(N3CCC(OC4CCN(C(C)C)CC4)CC3)cc2)on1` [Example E23] showed a Ki of at most 1 nM.

The compound `Cc1cc(-c2ccc(N3CCC(OC4CCN(C5CCC5)CC4)CC3)cc2)on1` [Example E24] gave a Ki of at most 1 nM.

In the case of `Cc1nc(-c2ccc(N3CCC(OC4CCN(C5CCC5)CC4)CC3)cc2)no1` [Example E25], the Ki was at most 1 nM.

Take `CC(C)N1CCC(OC2CCN(c3ccc(-c4nnc(-c5ccccc5)o4)cc3)CC2)CC1` [Example E26]: the Ki was at most 1 nM.

Turning to `c1ccc(-c2nnc(-c3ccc(N4CCC(OC5CCN(C6CCC6)CC5)CC4)cc3)o2)cc1` [Example E27], the inhibitory constant (Ki) was at most 1 nM.

Regarding `Cc1noc(-c2ccc(N3CCC(OC4CCN(C5CCC5)CC4)CC3)cc2)n1` [Example E28], the Ki is at most 1 nM.

Compound `c1ncc(-c2ccc(N3CCC(OC4CCN(C5CCC5)CC4)CC3)cc2)o1` [Example E29] showed a Ki of at most 1 nM.

Regarding `CC(C)N1CCC(OC2CCN(c3ccc(-c4cnco4)cc3)CC2)CC1` [Example E30], the Ki is at most 1 nM.

`CN(C)C(=O)c1ccc(N2CCC(OC3CCN(C4CCC4)CC3)CC2)cn1` [Example E31, 5-{4-[(1-Cyclobutyl-4-piperidinyl)oxy]-1-piperidinyl}-N,N-dimethyl-2-pyridinecarboxamide hydrochloride] showed a Ki of at most 1 nM.

On to `CC(C)N1CCC(OC2CCN(c3ccc(C(=O)N(C)C)nc3)CC2)CC1` [Example E32], for which the Ki was at most 1 nM.

Compound `CC(C)N1CCC(OC2CCN(c3ccc(C(=O)N4CCCC4)nc3)CC2)CC1` [Example E33] gave a Ki of at most 1 nM.

As for `CC(C)N1CCC(OC2CCN(c3ccc(C(=O)N4CCCCC4)nc3)CC2)CC1` [Example E34], the Ki was at most 1 nM.

Regarding `O=C(c1ccc(N2CCC(OC3CCN(C4CCC4)CC3)CC2)cn1)N1CCCCC1` [Example E35], the Ki is at most 1 nM.

`CC(C)N1CCC(OC2CCN(c3ccc(C(=O)N4CCOCC4)nc3)CC2)CC1` [Example E36]: the Ki is at most 1 nM.

The compound `O=C(c1ccc(N2CCC(OC3CCN(C4CCC4)CC3)CC2)cn1)N1CCOCC1` [Example E37] had a Ki of at most 1 nM.

Compound `CNC(=O)c1ccc(N2CCC(OC3CCN(C4CCC4)CC3)CC2)cn1` [Example E38, 5-{4-[(1-Cyclobutyl-4-piperidinyl)oxy]-1-piperidinyl}-N-methyl-2-pyridinecarboxamide hydrochloride] had a Ki below 0.316 nM.

In turn, `CCNC(=O)c1ccc(N2CCC(OC3CCN(C(C)C)CC3)CC2)cn1` [Example E39] showed a Ki of at most 1 nM.

As for `CCCNC(=O)c1ccc(N2CCC(OC3CCN(C(C)C)CC3)CC2)cn1` [Example E41], the Ki was at most 1 nM.

Turning to `CC(C)N1CCC(OC2CCN(c3ccc(C(=O)NC4CCCC4)nc3)CC2)CC1` [Example E45], the Ki is at most 1 nM.

`O=C(NC1CCCC1)c1ccc(N2CCC(OC3CCN(C4CCC4)CC3)CC2)cn1` [Example E46]: the Ki is at most 1 nM.

`N#Cc1ccc(N2CCC(OC3CCN(C4CCC4)CC3)CC2)cn1` [Example E47, 5-{4-[(1-Cyclobutyl-4-piperidinyl)oxy]-1-piperidinyl}-2-pyridinecarbonitrile hydrochloride] showed a Ki of at most 1 nM.

For `CC(=O)c1ccc(N2CCC(OC3CCN(C4CCC4)CC3)CC2)cc1` [Example E48, 1-(4-{4-[(1-Cyclobutyl-4-piperidinyl)oxy]-1-piperidinyl}phenyl)ethanone hydrochloride], the Ki is below 0.316 nM.

Consider `FC(F)(F)c1ccc(N2CCC(OC3CCN(C4CCC4)CC3)CC2)cn1` [Example E49, 5-{4-[(1-Cyclobutyl-4-piperidinyl)oxy]-1-piperidinyl}-2-(trifluoromethyl)pyridine hydrochloride], for which the Ki was at most 1 nM.
